According to ChEMBL document CHEMBL5137080, “Discovery of Novel 7-Hydroxy-5-oxo-4,5-dihydrothieno[3,2-b]pyridine-6-carboxamide Derivatives with Potent and Selective Antifungal Activity against Cryptococcus Species” (J Med Chem, 2022):
In brackets after ≈: the same amount, converted by molar mass.

Columns and labels:
Candida albicans = test: Antifungal activity against Candida albicans SC5314 assessed as fungal growth inhibition incubated for 48 hrs by broth microdilution method; type: functional
Aspergillus fumigatus = test: Antifungal activity against Aspergillus fumigatus 7544 assessed as fungal growth inhibition incubated for 48 hrs by broth microdilution method; type: functional
Cryptococcus neoformans [1] = test: Antifungal activity against Cryptococcus neoformans H99 assessed as fungal growth inhibition incubated for 72 hrs by broth microdilution method; type: functional
[2] = test system: Cryptococcus gattii species complex; test: Antifungal activity against Cryptococcus gattii E566 assessed as fungal growth inhibition incubated for 72 hrs by broth microdilution method; type: functional
[3] = test system: Cryptococcus deuterogattii; test: Antifungal activity against Cryptococcus gattii WM178 assessed as fungal growth inhibition incubated for 72 hrs by broth microdilution method; type: functional, Cryptococcus gattii species complex
Cryptococcus gattii = test: Antifungal activity against Cryptococcus gattii WM179 assessed as fungal growth inhibition incubated for 72 hrs by broth microdilution method; type: functional, Cryptococcus gattii species complex
[Candida] auris = Antifungal activity against Candida auris CBS 12372 assessed as fungal growth inhibition incubated for 48 hrs by broth microdilution method; type: functional; settings: Candidozyma auris
Nakaseomyces glabratus = test: Antifungal activity against Candida glabrata ATCC1182 assessed as fungal growth inhibition incubated for 48 hrs by broth microdilution method; type: functional
Cryptococcus neoformans [4] = test: Antifungal activity against Cryptococcus neoformans clinical isolate BJ3 assessed as fungal growth inhibition incubated for 72 hrs by broth microdilution method; type: functional
Pichia kudriavzevii = test: Antifungal activity against Candida krusei ATCC2340 assessed as fungal growth inhibition incubated for 48 hrs by broth microdilution method; type: functional
Candida tropicalis = test: Antifungal activity against Candida tropicalis ATCC20026 assessed as fungal growth inhibition incubated for 48 hrs by broth microdilution method; type: functional
Cryptococcus neoformans [5] = test: Antifungal activity against Cryptococcus neoformans clinical isolate 56992 assessed as fungal growth inhibition incubated for 72 hrs by broth microdilution method; type: functional
Cryptococcus neoformans [6] = test: Antifungal activity against Cryptococcus neoformans clinical isolate HN1 assessed as fungal growth inhibition incubated for 72 hrs by broth microdilution method; type: functional
Cryptococcus neoformans [7] = test: Antifungal activity against Cryptococcus neoformans clinical isolate HN2 assessed as fungal growth inhibition incubated for 72 hrs by broth microdilution method; type: functional
Cryptococcus neoformans [8] = test: Antifungal activity against Cryptococcus neoformans clinical isolate HN2-40 assessed as fungal growth inhibition incubated for 72 hrs by broth microdilution method; type: functional
Cryptococcus neoformans [9] = test: Antifungal activity against Cryptococcus neoformans clinical isolate HN15 assessed as fungal growth inhibition incubated for 72 hrs by broth microdilution method; type: functional
Cryptococcus neoformans [10] = test: Antifungal activity against Cryptococcus neoformans clinical isolate HN17 assessed as fungal growth inhibition incubated for 72 hrs by broth microdilution method; type: functional
Cryptococcus neoformans [11] = test: Antifungal activity against Cryptococcus neoformans clinical isolate HN19 assessed as fungal growth inhibition incubated for 72 hrs by broth microdilution method; type: functional
Cryptococcus neoformans [12] = test: Antifungal activity against Cryptococcus neoformans clinical isolate HN20 assessed as fungal growth inhibition incubated for 72 hrs by broth microdilution method; type: functional
Cryptococcus neoformans [13] = test: Antifungal activity against Cryptococcus neoformans clinical isolate SH68 assessed as fungal growth inhibition incubated for 72 hrs by broth microdilution method; type: functional
Cryptococcus neoformans [14] = test: Antifungal activity against Cryptococcus neoformans clinical isolate 443 assessed as fungal growth inhibition incubated for 72 hrs by broth microdilution method; type: functional
Cryptococcus neoformans [15] = test: Antifungal activity against Cryptococcus neoformans clinical isolate 444 assessed as fungal growth inhibition incubated for 72 hrs by broth microdilution method; type: functional
Cryptococcus neoformans [16] = test: Antifungal activity against Cryptococcus neoformans clinical isolate 445 assessed as fungal growth inhibition incubated for 72 hrs by broth microdilution method; type: functional
[17] = test system: Cryptococcus gattii species complex; test: Antifungal activity against Cryptococcus gattii clinical isolate SCZ20024 assessed as fungal growth inhibition incubated for 72 hrs by broth microdilution method; type: functional
[18] = test system: Cryptococcus gattii species complex; test: Antifungal activity against Cryptococcus gattii clinical isolate SCZ20031 assessed as fungal growth inhibition incubated for 72 hrs by broth microdilution method; type: functional
Candida parapsilosis = test: Antifungal activity against Candida parapsilosis ATCC22019 assessed as fungal growth inhibition incubated for 48 hrs in presence of Fluconazole by broth microdilution method; type: functional; settings: Lodderomyces parapsilosis
Cryptococcus neoformans [19] = test: Antifungal activity against Cryptococcus neoformans clinical isolate HN15 assessed as fungal growth inhibition incubated for 72 hrs in presence of Fluconazole by broth microdilution method; type: functional
Cryptococcus neoformans [20] = test: Synergistic antifungal activity against Cryptococcus neoformans clinical isolate HN2-40 assessed as fractional inhibitory concentration index incubated for 72 hrs in presence of Fluconazole by broth microdilution method; type: functional
Cryptococcus neoformans [21] = test: Synergistic antifungal activity against Cryptococcus neoformans clinical isolate SH68 assessed as fractional inhibitory concentration index incubated for 72 hrs in presence of Fluconazole by broth microdilution method; type: functional
Cryptococcus neoformans [22] = test: Antifungal activity against Cryptococcus neoformans H99 infected in Wax moth larvae assessed as reduction on fungal burden at 10 mg/kg measured after 9 days by 10 fold serial dilution method; type: functional; settings: time 9 day
Cryptococcus neoformans [23] = test: Antifungal activity against Cryptococcus neoformans H99 infected in Wax moth larvae assessed as median survival time at 10 mg/kg measured after 9 days by Kaplan-Meier method; type: functional; settings: time 9 day
[24] = test system: Cryptococcus deuterogattii; test: Antifungal activity against Cryptococcus gattii WM178 infected in Wax moth larvae assessed as median survival time at 10 mg/kg measured after 9 days by Kaplan-Meier method; type: functional, Cryptococcus gattii species complex; settings: time 9 day
[25] = Cytotoxicity against human HUVEC cells assessed as inhibition on cell growth incubated for 24 hrs by CCK-8 assay; type: toxicity, cell-based
[26] = Cytotoxicity against human HUVEC cells assessed as cell viability at 256 ug/ml incubated for 24 hrs by CCK-8 assay; type: toxicity, cell-based; settings: at 256 µg/mL, read-out: Activity
[27] = Cytotoxicity against human Caco-2 cells assessed as cell viability at 256 ug/ml incubated for 24 hrs by CCK-8 assay; type: toxicity, cell-based; settings: at 256 µg/mL, read-out: Activity
[28] = Hemolytic activity in rabbit RBC at 16 ug/ml incubated for 1 hr by spectrophotometry; type: toxicity, cell-based, Oryctolagus cuniculus, Erythrocyte; settings: red blood cells, at 16 µg/mL, read-out: Activity
[29] = Hemolytic activity in rabbit RBC at 256 ug/ml incubated for 1 hr by spectrophotometry; type: toxicity, cell-based, Oryctolagus cuniculus, Erythrocyte; settings: red blood cells, at 256 µg/mL, read-out: Activity
Cryptococcus neoformans [30] = test: Antifungal activity against Cryptococcus neoformans H99 infected in Wax moth larvae assessed as survival rate at 10 mg/kg measured after 9 days by Kaplan-Meier method; type: functional; settings: H99, 216 h, time 9 day
[31] = test system: Cryptococcus deuterogattii; test: Antifungal activity against Cryptococcus gattii WM178 infected in Wax moth larvae assessed as survival rate at 10 mg/kg measured after 9 days by Kaplan-Meier method; type: functional, Cryptococcus gattii species complex; settings: WM178, 216 h, time 9 day

For `CCCCNC(=O)c1c(O)c2sccc2n(Cc2ccccc2)c1=O`, the MIC (Candida albicans) was > 64 µg/mL, the MIC (Aspergillus fumigatus) was > 64 µg/mL and the MIC (Cryptococcus neoformans [1]) was 0.25 µg/mL (≈ 0.701 µM). For the same compound, the MIC [2] was 0.5 µg/mL (≈ 1.4 µM), the MIC [3] was 0.5 µg/mL (≈ 1.4 µM) and the MIC (Cryptococcus gattii) was 0.5 µg/mL (≈ 1.4 µM). For the same compound, the MIC ([Candida] auris) was > 64 µg/mL, the MIC (Nakaseomyces glabratus) was > 64 µg/mL and the MIC (Cryptococcus neoformans [4]) was 0.5 µg/mL (≈ 1.4 µM). The MIC (Pichia kudriavzevii) was > 64 µg/mL, the MIC (Candida tropicalis) was > 64 µg/mL and the MIC (Cryptococcus neoformans [5]) was 1 µg/mL (≈ 2.81 µM). For the same compound, the MIC (Cryptococcus neoformans [6]) was 0.5 µg/mL (≈ 1.4 µM), the MIC (Cryptococcus neoformans [7]) was 0.5 µg/mL (≈ 1.4 µM) and the MIC (Cryptococcus neoformans [8]) was 0.5 µg/mL (≈ 1.4 µM). For the same compound, the MIC (Cryptococcus neoformans [9]) was 1 µg/mL (≈ 2.81 µM), the MIC (Cryptococcus neoformans [10]) was 1 µg/mL (≈ 2.81 µM) and the MIC (Cryptococcus neoformans [11]) was 1 µg/mL (≈ 2.81 µM). The MIC (Cryptococcus neoformans [12]) was 0.25 µg/mL (≈ 0.701 µM), the MIC (Cryptococcus neoformans [13]) was 0.5 µg/mL (≈ 1.4 µM) and the MIC (Cryptococcus neoformans [14]) was 1 µg/mL (≈ 2.81 µM). The MIC (Cryptococcus neoformans [15]) was 0.5 µg/mL (≈ 1.4 µM), the MIC (Cryptococcus neoformans [16]) was 2 µg/mL (≈ 5.61 µM) and the MIC [17] was 1 µg/mL (≈ 2.81 µM). The MIC [18] was 1 µg/mL (≈ 2.81 µM), the MIC (Candida parapsilosis) was 16 µg/mL and the MIC (Cryptococcus neoformans [19]) was 0.0625 µg/mL. The “fractional inhibitory concentration index (FICI)” value (Cryptococcus neoformans [20]) was 0.188, the “fractional inhibitory concentration index (FICI)” value (Cryptococcus neoformans [21]) was 0.25 and the Activity (Cryptococcus neoformans [22]) was 5.7 log10CFU/g. The MST (Cryptococcus neoformans [23]) was 2.5 days, the MST [24] was 3 days and the IC50 at 24 h [25] was > 64 µg/mL. The viability at 24 h, 256 ug/ml [26] was 107%, the viability at 24 h, 256 ug/ml [27] was 104% and the hemolysis at 1 h, 16 ug/ml [28] was 2.32%. The hemolysis at 1 h, 256 ug/ml [29] was 2.47%, the survival at 10 mg/kg (Cryptococcus neoformans [30]) was 30% and the survival at 10 mg/kg [31] was 35%.
